pKi: −log10 of the molar value. Like-named read-outs stand apart in the source and are kept apart here.
Experiments:
[1] = molecular target: GluN2D (Homo sapiens (Human), UniProt O15399); experiment: Two electrode voltage-clamp recordings, single concentration, GluN2D; format: cell-based; settings: pH 6.9
[2] = molecular target: 5-HT1B (Homo sapiens (Human), UniProt P28222); experiment: Off-target radioligand binding displacement (NIMH PDSP); settings: pH 7.4
Method: (§1) Briefly, the compound was submitted to the NIMH PDSP and screened at a single concentration (10 μM) of test article under equilibrium conditions for ability to displace specific radioligands from binding to their targets expressed in mammalian cell membranes in vitro. Each receptor target was assayed in quadruplicate and the % inhibition of radioligand binding at each target determined at pH 7.4. […]

[3] = molecular target: 5-HT1D (Homo sapiens (Human), UniProt P28221); experiment: as above; settings: pH 7.4
Method: as §1

[4] = molecular target: T1, 5-HT2A (Homo sapiens (Human), UniProt P28223); experiment: as above; settings: pH 7.4
Method: as §1

[5] = molecular target: Alpha2C (Homo sapiens (Human), UniProt P18825); experiment: as above; settings: pH 7.4
Method: as §1

[6] = molecular target: SERT (Homo sapiens (Human), UniProt P31645); experiment: as above; settings: pH 7.4
Method: as §1

[7] = molecular target: T1, 5-HT2A; experiment: Functional agonism/antagonism, IP1 HTRF in HEK293 cells; format: cell-based
Method: These receptor targets include the 5-HT2A receptor, the functional study of which was performed at pH 7.4 (Porter, et al., Br J Pharmacol, 1999, 128:13-20; CEREP, France). […] Separate wells stimulated with 10 μM serotonin served as a positive control. […] The cells were stimulated with 100 nM serotonin.

[8] = tested on: MCAO model of transient ischemia in mice; experiment: In vivo model of transient focal ischemia, middle cerebral artery occlusion (MCAO); design: species or system mouse; settings: for infarct volume: 24 hours post reperfusion
Method: All protocols involving animals were approved by the Georgia State University IACUC, an AAALAC accredited program, and was under the supervision of a licensed veterinarian. Mice were group housed, provided nestlets and shelters with access to food pellets and water ad libitum under a 12-hour light/dark cycle. Mice were brought to a separate room and housed for at least 30 min prior to initiation of the surgery.
Mice (C57B16, >90 days old, Jackson Labs) were subjected to transient (60 min) middle cerebral artery occlusion (MCAO) and the infarct volume measured 24 hours post reperfusion, similar as previously described (Yuan, et al., Neuron, 2015, 85(6):1305-1318). Male mice were used for this experiment to reduce potential confound by progesterone variation through estrous cycles, which can have neuroprotective actions. Briefly, transient ischemia was induced in anesthetized (2% isoflurane/98% O2) mice by insertion of an intraluminal suture into the MCA for 60 minutes (Junge, et al., Proc NatlAcad Sci USA, 2003, 100: 13019-13024). The body temperature of each mouse was monitored with a rectal thermometer and maintained at 37° C. through use of a homeothermic blanket. Changes in local cerebral blood flow were monitored with a laser Doppler flowmeter probe (Perimed) secured via glue to the skull 4-6 mm lateral and 2 mm posterior of bregma. An 11-mm 5-0 Dermalon or Look (SP185) black nylon non-absorbable suture with the tip flame-rounded was introduced into the left internal carotid artery through the external carotid artery stump up to 10.5-11 mm of suture insertion. Only mice with a reduction in blood flow to <20% for 60 min and with recovery of blood flow to >90% following removal of the suture were progressed to complete the study. Following the occlusion period, mice were placed back in their cages on a warming blanket (37° C.) for several hours and monitored for righting reflex and ability to ambulate upon a gentle touch. At 24 hours post occlusion, mice were euthanized by isoflurane overdose, the brain quickly removed and cut into 2 mm sections and incubated in 2% 2,3,5-triphenyltetrazolium chloride (TTC) in phosphate buffered saline (pH 7.4) at 37° C. for 20 min, then placed at 4° C. for imaging. The infarct area was then measured using the NIH IMAGE software (Scion Corporation, Beta 4.0.2 release). The lesioned area of each section was determined by digital threshold reductions in TTC staining to ≤20% lower intensity than that observed in the contralateral cortex. The infarct region was then manually outlined with a curser and the cubic volume of the infarct determined for each slice, then summed across all four slices from each animal to obtain total infarct volume. […]

[9] = Pharmacokinetics in the brain compartment compared to plasma in mice; format: in vivo; settings: BALB/c, mouse; for Cmax at 1 h: iv
Method: Formulation for pharmacokinetic studies used 2% or 10% N′,N′-dimethylacetamide, 10% propylene glycol, and 30% 2-hydroxypropyl-beta-cyclodextrin in water and a dose volume of 10 mL/kg (all routes of administration).
Here, brain samples were first washed in deionized water to remove blood, the weight recorded, then transferred into fresh 1 mL water, homogenized, and stored at −80° C. until analysis. The ratio of compound in brain (g) compared to blood (mL) was then calculated.

[10] = molecular target: 5-HT2B (Homo sapiens (Human), UniProt P41595); experiment: biochemical
5-HT2B, sequence (P41595 whole entry, species assumed): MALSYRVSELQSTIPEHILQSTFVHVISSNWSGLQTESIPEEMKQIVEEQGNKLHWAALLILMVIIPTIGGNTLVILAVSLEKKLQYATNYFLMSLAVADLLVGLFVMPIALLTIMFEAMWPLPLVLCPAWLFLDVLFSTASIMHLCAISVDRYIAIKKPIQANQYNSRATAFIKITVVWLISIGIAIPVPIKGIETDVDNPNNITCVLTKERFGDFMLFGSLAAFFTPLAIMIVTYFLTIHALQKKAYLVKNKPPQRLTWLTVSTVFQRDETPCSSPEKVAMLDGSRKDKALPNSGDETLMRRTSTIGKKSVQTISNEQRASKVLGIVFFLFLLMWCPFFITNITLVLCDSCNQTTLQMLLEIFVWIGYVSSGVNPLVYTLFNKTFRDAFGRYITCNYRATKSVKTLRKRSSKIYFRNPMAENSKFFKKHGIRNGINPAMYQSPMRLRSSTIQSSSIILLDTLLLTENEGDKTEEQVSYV
Method: as §1

T1 sequence (P28223 whole entry): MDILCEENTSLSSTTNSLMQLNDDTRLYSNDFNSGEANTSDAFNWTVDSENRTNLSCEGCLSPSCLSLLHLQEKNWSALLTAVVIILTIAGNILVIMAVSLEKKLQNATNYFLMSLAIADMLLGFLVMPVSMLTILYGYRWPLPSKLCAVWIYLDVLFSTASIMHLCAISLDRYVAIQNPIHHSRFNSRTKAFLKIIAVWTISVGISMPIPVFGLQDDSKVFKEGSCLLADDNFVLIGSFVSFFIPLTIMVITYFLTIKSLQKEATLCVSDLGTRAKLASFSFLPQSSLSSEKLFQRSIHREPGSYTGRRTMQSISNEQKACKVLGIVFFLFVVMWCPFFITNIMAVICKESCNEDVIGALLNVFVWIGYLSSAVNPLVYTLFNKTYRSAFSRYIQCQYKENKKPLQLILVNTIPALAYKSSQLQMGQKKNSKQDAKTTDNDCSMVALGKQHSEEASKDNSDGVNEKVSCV
GluN2D, sequence (O15399 28-1336, other chains not shown): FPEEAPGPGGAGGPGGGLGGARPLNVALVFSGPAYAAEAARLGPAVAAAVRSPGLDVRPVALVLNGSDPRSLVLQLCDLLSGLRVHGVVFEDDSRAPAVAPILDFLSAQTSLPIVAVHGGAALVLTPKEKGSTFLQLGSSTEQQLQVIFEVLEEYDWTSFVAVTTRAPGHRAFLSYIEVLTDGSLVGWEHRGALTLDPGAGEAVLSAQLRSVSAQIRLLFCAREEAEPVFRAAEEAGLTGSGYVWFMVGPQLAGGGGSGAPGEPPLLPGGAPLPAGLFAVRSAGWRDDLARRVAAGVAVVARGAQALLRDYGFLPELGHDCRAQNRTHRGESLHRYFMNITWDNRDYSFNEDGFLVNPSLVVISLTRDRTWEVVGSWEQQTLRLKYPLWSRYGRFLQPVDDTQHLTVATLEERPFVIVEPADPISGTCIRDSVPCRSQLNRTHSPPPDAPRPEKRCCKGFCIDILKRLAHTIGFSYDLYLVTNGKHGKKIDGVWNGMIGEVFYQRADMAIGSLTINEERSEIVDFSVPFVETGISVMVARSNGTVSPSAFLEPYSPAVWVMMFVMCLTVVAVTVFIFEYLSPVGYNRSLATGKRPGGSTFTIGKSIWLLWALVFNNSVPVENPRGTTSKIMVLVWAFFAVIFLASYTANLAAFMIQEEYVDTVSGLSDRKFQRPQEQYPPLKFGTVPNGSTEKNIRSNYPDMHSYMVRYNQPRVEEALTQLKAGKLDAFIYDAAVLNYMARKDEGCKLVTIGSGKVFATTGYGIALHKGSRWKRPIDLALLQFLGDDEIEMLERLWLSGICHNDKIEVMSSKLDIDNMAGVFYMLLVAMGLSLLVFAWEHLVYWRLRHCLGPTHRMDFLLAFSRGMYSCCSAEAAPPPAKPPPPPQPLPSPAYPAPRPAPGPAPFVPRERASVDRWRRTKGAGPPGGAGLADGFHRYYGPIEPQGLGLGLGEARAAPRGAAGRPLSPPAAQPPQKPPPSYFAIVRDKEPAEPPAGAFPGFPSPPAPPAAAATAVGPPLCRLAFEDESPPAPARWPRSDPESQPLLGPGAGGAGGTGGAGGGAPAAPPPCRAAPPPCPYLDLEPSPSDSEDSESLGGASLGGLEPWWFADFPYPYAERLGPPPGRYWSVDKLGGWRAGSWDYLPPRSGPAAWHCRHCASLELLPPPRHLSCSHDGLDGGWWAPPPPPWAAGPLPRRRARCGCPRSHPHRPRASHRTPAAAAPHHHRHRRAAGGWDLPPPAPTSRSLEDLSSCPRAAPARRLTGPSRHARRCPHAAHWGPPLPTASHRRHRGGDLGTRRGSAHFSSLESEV
5-HT1D, sequence (P28221 whole entry, species assumed): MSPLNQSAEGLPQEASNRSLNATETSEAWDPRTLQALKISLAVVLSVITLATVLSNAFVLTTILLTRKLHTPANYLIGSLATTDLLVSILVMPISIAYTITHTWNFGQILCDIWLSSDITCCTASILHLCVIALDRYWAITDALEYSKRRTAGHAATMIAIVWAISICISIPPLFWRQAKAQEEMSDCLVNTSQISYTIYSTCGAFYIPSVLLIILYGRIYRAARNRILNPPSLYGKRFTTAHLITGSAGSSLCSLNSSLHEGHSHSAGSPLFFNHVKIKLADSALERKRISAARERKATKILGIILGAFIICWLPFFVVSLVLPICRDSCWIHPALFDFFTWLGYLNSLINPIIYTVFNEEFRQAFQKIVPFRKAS
Alpha2C, sequence (P18825 whole entry): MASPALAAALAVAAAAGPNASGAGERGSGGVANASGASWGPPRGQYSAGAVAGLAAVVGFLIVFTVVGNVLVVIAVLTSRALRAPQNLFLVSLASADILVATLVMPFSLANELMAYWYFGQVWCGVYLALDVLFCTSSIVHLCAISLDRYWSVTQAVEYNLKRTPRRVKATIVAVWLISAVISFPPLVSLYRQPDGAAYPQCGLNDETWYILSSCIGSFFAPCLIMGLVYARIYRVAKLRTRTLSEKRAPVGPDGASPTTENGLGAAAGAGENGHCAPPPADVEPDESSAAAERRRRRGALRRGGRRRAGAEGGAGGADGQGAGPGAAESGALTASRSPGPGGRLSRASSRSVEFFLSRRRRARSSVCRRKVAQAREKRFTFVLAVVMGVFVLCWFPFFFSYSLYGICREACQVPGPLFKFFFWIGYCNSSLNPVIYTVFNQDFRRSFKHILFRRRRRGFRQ
5-HT1B, sequence (P28222 whole entry, species assumed): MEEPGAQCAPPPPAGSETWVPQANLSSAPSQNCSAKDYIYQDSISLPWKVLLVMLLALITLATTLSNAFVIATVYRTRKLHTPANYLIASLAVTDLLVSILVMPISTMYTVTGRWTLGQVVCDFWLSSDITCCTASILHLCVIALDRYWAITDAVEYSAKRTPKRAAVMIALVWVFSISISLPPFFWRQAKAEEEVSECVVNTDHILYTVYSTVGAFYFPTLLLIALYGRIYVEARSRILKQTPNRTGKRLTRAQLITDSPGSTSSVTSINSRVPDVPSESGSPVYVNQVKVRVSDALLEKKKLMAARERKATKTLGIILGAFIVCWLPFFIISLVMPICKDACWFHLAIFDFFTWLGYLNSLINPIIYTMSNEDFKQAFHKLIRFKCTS
SERT, sequence (P31645 whole entry, species assumed): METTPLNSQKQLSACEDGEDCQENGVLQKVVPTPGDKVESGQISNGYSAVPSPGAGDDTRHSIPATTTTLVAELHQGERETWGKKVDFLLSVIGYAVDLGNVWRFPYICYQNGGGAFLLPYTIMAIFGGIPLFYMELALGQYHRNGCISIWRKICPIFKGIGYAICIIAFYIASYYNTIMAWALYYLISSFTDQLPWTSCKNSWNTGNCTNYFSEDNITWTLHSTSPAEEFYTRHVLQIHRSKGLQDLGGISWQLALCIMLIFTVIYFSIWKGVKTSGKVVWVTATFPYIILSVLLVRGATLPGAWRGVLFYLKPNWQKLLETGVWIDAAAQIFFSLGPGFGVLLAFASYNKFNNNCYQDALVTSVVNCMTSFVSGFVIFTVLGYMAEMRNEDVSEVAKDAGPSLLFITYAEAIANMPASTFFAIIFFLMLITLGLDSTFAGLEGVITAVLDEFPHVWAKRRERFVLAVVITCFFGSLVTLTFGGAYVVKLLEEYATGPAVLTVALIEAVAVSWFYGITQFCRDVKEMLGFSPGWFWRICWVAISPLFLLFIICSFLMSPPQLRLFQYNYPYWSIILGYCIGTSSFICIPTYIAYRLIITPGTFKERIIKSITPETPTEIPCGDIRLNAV

Which results are given for O=C1CCc2cc(OC[C@H](O)CN3CCN(c4ccc(C(F)(F)F)cc4)CC3)ccc2N1 [NP10679]?
off-target inhibition against GluN2D ([1]; 3 μM): no noticeable off-target inhibition; GluN2D % residual ([1]; % current remaining after 3 μM compound): 98.3 (pH 6.9) %; Ki [2]: > 10 µM; Ki [3]: 2.29 µM; Ki [4]: 0.638 µM; Ki [5]: 3.09 µM; Ki [6]: 0.135 µM; functional agonism or antagonism at 5-HT2A ([7]; pH 7.4): behaved as an antagonist; IC50 ([7]; pH 7.4, antagonism vs 100 nM serotonin): 1.71 µM; infarct volume ([8]; 5 mg/kg IP): 56±6.6 mm^3; infarct volume ([8]; 10 mg/kg IP): 49±3.0 mm^3; maximum infarct volume reduction ([8]; IP dose prior to 60 min MCAO): 52%; ED50 ([8]; Mus musculus, 1 h, IP dose prior to 60 min MCAO, read-out: ED50 for infarct volume reduction): 1 mg/kg; concentration at 1 h ([9]; brain, intraperitoneal, 5 mg/kg, 5 mg/kg IP, 1 hour post dosing, read-out: estimated free drug concentration in the brain): 60 to 134 nM; concentration at 2 h ([9]; brain, intraperitoneal, 5 mg/kg, 5 mg/kg IP, 2 hours post dosing, read-out: estimated free drug concentration in the brain): 51 to 103 nM; concentration at 4 h ([9]; brain, intraperitoneal, 5 mg/kg, 5 mg/kg IP, 4 hours post dosing, read-out: estimated free drug concentration in the brain): 33 to 66 nM; concentration at 8 h ([9]; brain, intraperitoneal, 5 mg/kg, 5 mg/kg IP, 8 hours post dosing, read-out: estimated free drug concentration in the brain): 28 to 56 nM; concentration at 1 h ([9]; brain, intravenous, 3 mg/kg, 3 mg/kg IV, Study 1, 1 hour, read-out: Brain Conc.): 1740 ng/g; concentration at 1 h ([9]; brain, intravenous, 3 mg/kg, 3 mg/kg IV, Study 2A (2% DMA formulation), 1 hour, read-out: Brain Conc.): 1420 ng/g; concentration at 1 h ([9]; brain, intravenous, 3 mg/kg, 3 mg/kg IV, Study 2B, 1 hour, read-out: Brain Conc.): 2100 ng/g; Cmax at 1 h ([9]; plasma, 3 mg/kg, 3 mg/kg IV, Study 1, 1 hour): 2300 ng/mL; Cmax at 1 h ([9]; plasma, 3 mg/kg, 3 mg/kg IV, Study 2A (2% DMA formulation), 1 hour): 600 ng/mL; Cmax at 1 h ([9]; plasma, 3 mg/kg, 3 mg/kg IV, Study 2B, 1 hour): 817 ng/mL; Tmax ([9]; plasma, 3 mg/kg IV, Study 1): 1 h; pKi [10]: 5.72

Source: US20240360091A1, “GLUN2B-SUBUNIT SELECTIVE ANTAGONISTS OF THE N-METHYL-D-ASPARTATE RECEPTORS WITH ENHANCED POTENCY AT ACIDIC PH” (Emory University, priority 2021, published 2024)
